Results from patent US12275722B2, “Process of reworking a crystalline form of a glycine transport inhibitor” (Boehringer Ingelheim International GmbH, priority 2020, dated 2025).

What was measured:
[1] = Bulk density of the dried/homogenized Compound batches; assay type: physicochemical; details: reworked (dried, homogenized) drug substance batch
[2] = Water sorption (dynamic vapor sorption), water-uptake; assay type: physicochemical; details: 25° C., 90% relative humidity for 6 hours under humid nitrogen purge
Procedure: Water sorption isotherms can be determined using a dynamic vapor sorption system (Advantage, DVS, London, UK). The samples are subjected to 0 to 90% relative humidity (RH) stepwise with a step size of 10% at 25° C. Each sample is equilibrated at each RH step for at least 60 min, and equilibrium is assumed if weight increase is less than 0.1% within one minute, and the maximum duration on each RH is 6 hours. Therefore, each sample is held at a given RH for 1 to 6 hours depending on how fast the equilibrium is reached.

## C[C@@H](Oc1ccc(S(C)(=O)=O)cc1C(=O)N1C[C@@H]2C[C@]2(c2cc(C(F)(F)F)on2)C1)C(F)(F)F [Batch 1TA]
[1]; listed as 1TA
  Bulk density: 0.17 g/mL

## C[C@@H](Oc1ccc(S(C)(=O)=O)cc1C(=O)N1C[C@@H]2C[C@]2(c2cc(C(F)(F)F)on2)C1)C(F)(F)F [Batch 1TB]
[1]; listed as 1TB
  Bulk density: 0.16 g/mL

## C[C@@H](Oc1ccc(S(C)(=O)=O)cc1C(=O)N1C[C@@H]2C[C@]2(c2cc(C(F)(F)F)on2)C1)C(F)(F)F [Batch 2TA]
[1]; listed as 2TA
  Bulk density: 0.17 g/mL

## C[C@@H](Oc1ccc(S(C)(=O)=O)cc1C(=O)N1C[C@@H]2C[C@]2(c2cc(C(F)(F)F)on2)C1)C(F)(F)F [Batch 2TB]
[1]; listed as 2TB
  Bulk density: 0.2 g/mL

## C[C@@H](Oc1ccc(S(C)(=O)=O)cc1C(=O)N1C[C@@H]2C[C@]2(c2cc(C(F)(F)F)on2)C1)C(F)(F)F [Batch 3TA]
[1]; listed as 3TA
  Bulk density: 0.18 g/mL

## C[C@@H](Oc1ccc(S(C)(=O)=O)cc1C(=O)N1C[C@@H]2C[C@]2(c2cc(C(F)(F)F)on2)C1)C(F)(F)F [Batch 3TB]
[1]; listed as 3TB
  Bulk density: 0.17 g/mL

## C[C@@H](Oc1ccc(S(C)(=O)=O)cc1C(=O)N1C[C@@H]2C[C@]2(c2cc(C(F)(F)F)on2)C1)C(F)(F)F [Batch 4TA]
[1]; listed as 4TA
  Bulk density: 0.22 g/mL

## C[C@@H](Oc1ccc(S(C)(=O)=O)cc1C(=O)N1C[C@@H]2C[C@]2(c2cc(C(F)(F)F)on2)C1)C(F)(F)F [Batch 4TB]
[1]; listed as 4TB
  Bulk density: 0.17 g/mL

## C[C@@H](Oc1ccc(S(C)(=O)=O)cc1C(=O)N1C[C@@H]2C[C@]2(c2cc(C(F)(F)F)on2)C1)C(F)(F)F [Batch 5]
[1]; listed as 5
  Bulk density: 0.14 g/mL

## C[C@@H](Oc1ccc(S(C)(=O)=O)cc1C(=O)N1C[C@@H]2C[C@]2(c2cc(C(F)(F)F)on2)C1)C(F)(F)F [Batch 6]
[1]; listed as 6
  Bulk density: 0.15 g/mL

## C[C@@H](Oc1ccc(S(C)(=O)=O)cc1C(=O)N1C[C@@H]2C[C@]2(c2cc(C(F)(F)F)on2)C1)C(F)(F)F [Batch 17102]
[1]; listed as 17102
  Bulk density: 0.35 g/mL

## C[C@@H](Oc1ccc(S(C)(=O)=O)cc1C(=O)N1C[C@@H]2C[C@]2(c2cc(C(F)(F)F)on2)C1)C(F)(F)F [Batch 17103]
[1]; listed as 17103
  Bulk density: 0.50 g/mL

## C[C@@H](Oc1ccc(S(C)(=O)=O)cc1C(=O)N1C[C@@H]2C[C@]2(c2cc(C(F)(F)F)on2)C1)C(F)(F)F [Batch 17104]
[1]; listed as 17104
  Bulk density: 0.23 g/mL

## C[C@@H](Oc1ccc(S(C)(=O)=O)cc1C(=O)N1C[C@@H]2C[C@]2(c2cc(C(F)(F)F)on2)C1)C(F)(F)F [Batch 18105]
[1]; listed as 18105
  Bulk density: 0.12 g/mL

## C[C@@H](Oc1ccc(S(C)(=O)=O)cc1C(=O)N1C[C@@H]2C[C@]2(c2cc(C(F)(F)F)on2)C1)C(F)(F)F [Batch 18106]
[1]; listed as 18106
  Bulk density: 0.15 g/mL

## C[C@@H](Oc1ccc(S(C)(=O)=O)cc1C(=O)N1C[C@@H]2C[C@]2(c2cc(C(F)(F)F)on2)C1)C(F)(F)F [Batch 18107]
[1]; listed as 18107
  Bulk density: 0.14 g/mL

## C[C@@H](Oc1ccc(S(C)(=O)=O)cc1C(=O)N1C[C@@H]2C[C@]2(c2cc(C(F)(F)F)on2)C1)C(F)(F)F [Batch 1098942]
[1]; listed as 8942
  Bulk density: 0.16 g/mL

## C[C@@H](Oc1ccc(S(C)(=O)=O)cc1C(=O)N1C[C@@H]2C[C@]2(c2cc(C(F)(F)F)on2)C1)C(F)(F)F [Batch 1098943]
[1]; listed as 8943
  Bulk density: 0.14 g/mL

## C[C@@H](Oc1ccc(S(C)(=O)=O)cc1C(=O)N1C[C@@H]2C[C@]2(c2cc(C(F)(F)F)on2)C1)C(F)(F)F [Batch 1098954]
[1]; listed as 8954
  Bulk density: 0.15 g/mL

## C[C@@H](Oc1ccc(S(C)(=O)=O)cc1C(=O)N1C[C@@H]2C[C@]2(c2cc(C(F)(F)F)on2)C1)C(F)(F)F [Batch 1098955]
[1]; listed as 8955
  Bulk density: 0.15 g/mL

## C[C@@H](Oc1ccc(S(C)(=O)=O)cc1C(=O)N1C[C@@H]2C[C@]2(c2cc(C(F)(F)F)on2)C1)C(F)(F)F [Batch 1099100]
[1]; listed as 9100
  Bulk density: 0.15 g/mL

## C[C@@H](Oc1ccc(S(C)(=O)=O)cc1C(=O)N1C[C@@H]2C[C@]2(c2cc(C(F)(F)F)on2)C1)C(F)(F)F [Batch 1099101]
[1]; listed as 9101
  Bulk density: 0.14 g/mL

## C[C@@H](Oc1ccc(S(C)(=O)=O)cc1C(=O)N1C[C@@H]2C[C@]2(c2cc(C(F)(F)F)on2)C1)C(F)(F)F [Batch 1099102]
[1]; listed as 9102
  Bulk density: 0.15 g/mL

## C[C@@H](Oc1ccc(S(C)(=O)=O)cc1C(=O)N1C[C@@H]2C[C@]2(c2cc(C(F)(F)F)on2)C1)C(F)(F)F [Batch 1099103]
[1]; listed as 9103
  Bulk density: 0.15 g/mL

## C[C@@H](Oc1ccc(S(C)(=O)=O)cc1C(=O)N1C[C@@H]2C[C@]2(c2cc(C(F)(F)F)on2)C1)C(F)(F)F [Batch 1099104]
[1]; listed as 9104
  Bulk density: 0.15 g/mL

## C[C@@H](Oc1ccc(S(C)(=O)=O)cc1C(=O)N1C[C@@H]2C[C@]2(c2cc(C(F)(F)F)on2)C1)C(F)(F)F [amorphous form, [5-(methylsulfonyl)-2-{[(2R)-1,1,1-trifluoropropan-2-yl]oxy}phenyl]{(1R,5R)-1-[5-(trifluoromethyl)-1,2-oxazol-3-yl]-3-azabicyclo[3.1.0]hex-3-yl}methanone]
[2]
  Water-uptake: 1.4%

## C[C@@H](Oc1ccc(S(C)(=O)=O)cc1C(=O)N1C[C@@H]2C[C@]2(c2cc(C(F)(F)F)on2)C1)C(F)(F)F [polymorph II, [5-(methylsulfonyl)-2-{[(2R)-1,1,1-trifluoropropan-2-yl]oxy}phenyl]{(1R,5R)-1-[5-(trifluoromethyl)-1,2-oxazol-3-yl]-3-azabicyclo[3.1.0]hex-3-yl}methanone]
[2]
  Water-uptake: about 0.04%
